Laboratory results as given in US20090269418A1, “Compositions and Methods for Inducing Hair Growth” (BioMas Ltd, priority 2004, published 2009).
Entries after “also recorded” stand apart in the source; their conditions may differ. Like-named read-outs stand apart in the source and are kept apart here.

Key:
[1] = test system: hair shedding / hair growth of the scalp in patients; experiment: Small-scale human clinical study of 0.01% AS101 topical spray, TrichoScan hair density analysis; format: in vivo
Description: Two small-scale human clinical studies were each conducted over a 6 month period to evaluate the potential use of an 0.01% AS101 spray formulation for the prevention of hair shedding and/or enhancing hair growth. Patients received no other alopecia treatment for at least 3 months prior to commencement of the study.
The sample group consisted of 36 patients, of which 6 withdrew due to non-compliance. Data from a further 14 patients was considered to be unsuitable for analysis with the TrichoScan system, for example, due to untraceable tattoos. 16 patients were therefore available for evaluation.
During an initial visit, a designated area of the scalp (about 0.7 cm^2) was shaved. Three days later, the area was tattooed using red ink, and photographed (Nikon digital camera). Patients were provided with a topical spray composition comprising 0.01% AS101 in 20% propylene glycol, 20% water and 60% ethyl alcohol, and were instructed to apply about 2 ml of the composition on the designated area on a daily basis for the first week, and once a day, twice a week thereafter. Patients were examined upon enrollment, and then after about 2 months, after about 3 months, and after about 6 months. Hair density, terminal hair density, and vellus hair density were analyzed, using the DatInf^R Image DB image archiving system, and TichoScan software.
Results were calculated in terms of hair density, terminal hair density, and vellus hair density.
FIGS. 2a and 2b present the data obtained for the hair density, terminal hair density and vellus hair density, each per cm^2, with two representative individuals of the study. The above parameters were measured at commencement of the study, after about 1 month, after about 3 months, and after about 6 months. All results were obtained using the DatInf^R Image DB image archiving system, and TichoScan software.

[2] = test system: bone marrow toxicity and alopecia induced by chemotherapy; details: cancer patients; cited from earlier work
hair growth [3] = details: nude mice, normal mice; in nude mice systemic, oral or topical; cited from earlier work
hair growth [4] = details: humans; cited from earlier work
anagen / catagen = details: C57BL/6 mouse model; cited from earlier work
KGF expression = details: cultured fibroblasts; via Cys118 of p21ras, ras signalling pathway; cited from earlier work
interferon (IFN) [5] = details: mice; cited from earlier work
interferon (IFN) [6] = details: humans; cited from earlier work
IL-1, IL-6, TNF-α, IL-10 = details: cited from earlier work

Structure (SMILES): Cl[TeH]1(Cl)(Cl)OCCO1 [AS101, ammonium trichloro(dioxyethylene-O,O′)tellurate]
- side-effects ([1]; 0.01% AS101 topical spray, 6 months): No side-effects were observed
- patients responding partially (increase observed during part of the treatment period) ([1]; 0.01% AS101 topical spray, 6 months, 16 evaluable patients): 18.75%
- patients who completed the study responding with a consistent increase in hair density ([1]; 0.01% AS101 topical spray, about 2 ml, daily first week then twice a week, 6 months, 16 evaluable patients): 37.5%
- hair density, terminal hair density and vellus hair density per cm^2 ([1]; after about 1 month, representative person and person (FIGS. 2a, 2b)): significant increase
- protection from bone marrow toxicity and alopecia induced by chemotherapy [2]: ability to protect
- induction of hair growth (hair growth [3]): induce hair growth
- induction of hair growth (hair growth [4]): induce hair growth
- anagen induction and retardation of spontaneous catagen (anagen / catagen): induce anagen and retard spontaneous catagen
- KGF expression (KGF expression): upregulates KGF expression
- interferon (IFN) induction (interferon (IFN) [5]): potent activator; also recorded: potent inducer
- interferon (IFN) induction (interferon (IFN) [6]): potent activator; also recorded: potent inducer
- IL-10 inhibition (IL-1, IL-6, TNF-α, IL-10; m-RNA level): inhibit IL-10 at the m-RNA level
- secretion of cytokines such as IL-1, IL-6 and TNF-α (IL-1, IL-6, TNF-α, IL-10; macrophages are one main target): induce the secretion
